In patent US8242058B2, “Reagents and methods for appending functional groups to proteins” (Wisconsin Alumni Research Foundation, priority 2006, dated 2012):

Assays:
[1] = cited from earlier work
[2] = Kinetics of thioester cleavage (release of thiophenolate, absorbance at 410 nm); conditions: for fold greater k1 value than ethyl amine: pH 7.0, 25° C., pseudo-unimolecular conditions
Protocol: To identify the optimal nitrogen nucleophile for a thioester, kinetic studies were performed on a model chromogenic thioester: AcGlySC6H4-p-NO2. The rate of release of the thiophenolate anion was monitored by measuring the change in absorbance at 410 nm (Scheme 1). Nitrogen nucleophiles with conjugate-acid pKa values ranging from 4.6 to 10.6 (Table 1) were used in the experiments. The logarithmic values of the second-order rate constants (k2) of the unprotonated primary amines were plotted against the pKa values of their conjugate acids to yield the Brønsted plot shown in FIG. 2A. The data were fitted to the equation^[26]: log k2=log(AB)+(β+β′)pKa−log(A10^βpK^a+B10^β′pK^a) (1) In eq 1, A and B are constants, β′ is the slope of the former part of the Brønsted plot, and β is the slope of the latter part.
Kinetics of thioester cleavage: AcGlySC6H4-p-NO2 was dissolved in anhydrous acetonitrile to a concentration of 0.45 mM and used immediately. Amine solutions (except CF3CH2NH2.HCl) were prepared by dissolving the amine hydrochloride salts in 0.10 M sodium phosphate buffer at pH 7.0 to a concentration of 0.15 M. Reaction mixtures were prepared in a 1,1-mL volume and equilibrated at 25° C. All reactions contained […] acetonitrile. The ionic strength of each reaction mixture was I=0.22-0.25. All reactions were carried out with a large excess of amine and followed pseudo-first-order kinetics. In a cuvette containing 0.10 M sodium phosphate buffer at pH 7.0 (967 μL), amine solution (0.15 M, 100 μL) was added and the absorbance at 410 nm was adjusted to zero. The thioester (33 μL of a 0.45 mM solution in acetonitrile) was then added to the cuvette, and the absorbance at 410 nm was monitored with time (ε=11,230 M^−1cm^−1 for p-nitrothiophenolate anion). […] This value is likely to be lower in an aqueous buffer, such that the ionization of the p-nitrothiophenol product is virtually complete in all our assays. The final concentration of the thioester in the reaction was 13.64 μM and the final concentration of the amines (except CF3CH2NH2.HCl) was 13.64 mM. Each reaction was performed in triplicate. The reactions were allowed to go to completion, and the t1/2 was determined from the kinetic trace. The t1/2 was corrected by subtracting the t1/2 for hydrolysis from the observed value. Pseudo-first-order rate constants were calculated by using the equation k1=0.693/t1/2. Second-order rate constants were obtained by dividing each observed first-order rate constant by the concentration of free amine. Logarithmic values of second-order rate constants were plotted against the pKa values of the conjugate acids of the respective amines to yield a Brønsted plot.
Using a higher buffer concentration was not ideal, as that would increase the ionic strength to a much value much larger than that in other reaction mixtures. To overcome these problems, the reaction with CF3CH2NH2 was carried out using 40.92 mM CF3CH2NH2.HCl and allowing the pH of the reaction mixture to decrease to 5.8. The observed t12 was corrected by subtracting the t12 for hydrolysis at pH 5.8. The second-order rate constant was calculated by accounting for the concentration of free amine at pH 5.8, and the resulting value was used in the Brønsted plot. The first-order rate constant thus obtained was not compared to those for the other nucleophiles.

Structure (SMILES)	pKa of conjugate acid [1]	fold greater k1 value than ethyl amine [2] [fold]	nucleophilicity at pH 7.0 (aminolysis versus hydrolysis) ([2]; pH 7.0, standard reaction conditions)	nucleophilicity of unprotonated amines (k2, Brønsted plot) ([2]; all amines deprotonated, 25° C.)
NCCO [HOCH2CH2NH2]	9.50^[22]			
CCOC(=O)CNN [C2H5O(O)CCH2NHNH2]	6.45^[24]	30		
CON [CH3ONH2]	4.60^[22]			
NCC(F)(F)F [F3CCH2NH2]	5.40^[23]		poor nucleophile	
CCN [CH3CH2NH2]	10.63^[22]			best nucleophile
CNN [CH3NHNH2]	7.87^[25]	100		
COC(=O)CN [CH3O(O)CCH2NH2]	7.75^[22]			
